Reference: US12478627B2, “Irsogladine for the treatment of eosinophilic gastrointestinal diseases” (EPITHELION SCIENCE BIOTECH, S.L., priority 2019, dated 2025)
“Also recorded” adds a separate entry of the source. Where a name gives a salt, the structure may show the parent alone.

Legend:
[1] = test system: Eosinophilic Esophagitis (EoE); assay: Example 1: oral Irsogladine maleate in patient one with active eosinophilic esophagitis; assay type: in vivo, human; settings: 12 weeks
Source text: […] […] […] A esophageal pH-metric study, performed without PPI treatment, was informed as normal. […] Without other type of examination, JCC was empirically treated in three occasions with Budesonide.
When seen, JCC was symptomatic, with difficulties to swallow food. Because of the symptoms and clinical history, Eosinophilic Esophagitis was suspected (Lucendo A J, et al. supra; Dellon E S, et al. supra; Lipowska A M, Kavitt R T. Current Diagnostic and Treatment Strategies for Eosinophilic Esophagitis. Gastroenterol Hepatol (N Y) 2017; 13(9):527-535). […] They had neither blood nor urine biological tests abnormalities. […] An Enteral Magnetic Resonance Imaging was informed as normal, without inflammatory features, increased wall thickness or strictures in the gastro-intestinal tract.
Simultaneously, biopsies were taken in all organs examined. […] Biopsies met the histological criteria of active eosinophil esophagitis (Lee S, de Boer W B, Naran A, et al. More than just counting eosinophils: proximal oesophageal involvement and subepithelial sclerosis are major diagnostic criteria for eosinophilic oesophagitis. J Clin Pathol. 2010; 63 (7):644-647; Collins M H, Capocelli K, Yang G Y. Eosinophilic Gastrointestinal Disorders Pathology. Front Med (Lausanne). 2018; 4:261). Gastric, duodenal and upper jejunal biopsies were reported as normal.
Consequently, JJC was diagnosed with active eosinophlic esophagitis. At this point in time, JJC was treated with oral Irsogladine maleate tablets, 2 mg twice a day during 12 weeks, exempting JJC from other therapies.
Also, at end of the Irsogladine treatment, endoscopic examination was repeated using Narrow Band Imaging (NBI). This technique is able to detect minimal changes in mucosa surface.

[2] = test system: Eosinophilic Esophagitis (EoE); assay: Example 2: oral Irsogladine maleate in patient three with eosinophilic esophagitis; assay type: in vivo, human
Protocol: […] […] […] Pain tended to increase while eating.
Endoscopic procedures were performed. Colonoscopy of the entire colon and 20 cm of the distal ileum were informed as normal and staged biopsies were taken. […] Biopsies were taken in all upper gastrointestinal tract organs examined. Both, clinical symptoms and endoscopic findings are in accordance with the clinical and endoscopic criteria of EoE (Lucendo A J, Molina-Infante J, Arias Á, et al. Guidelines on eosinophilic esophagitis: evidence-based statements and recommendations for diagnosis and management in children and adults. United European Gastroenterol J. 2017; 5 (3):335-358; Dellon E S, Liacouras C A, Molina-Infante J, et al. Updated International Consensus Diagnostic Criteria for Eosinophilic Esophagitis: Proceedings of the AGREE Conference. Gastroenterology. 2018; 155 (4):1022-1033.e10.; Lipowska AM, Kavitt R T. Current Diagnostic and Treatment Strategies for Eosinophilic Esophagitis. Gastroenterol Hepatol (N Y) 2017; 13 (9):527-535; Hirano I, Moy N, Heckman M G, Thomas C S, Gonsalves N, Achem S R. Endoscopic assessment of the oesophageal features of eosinophilic oesophagitis: validation of a novel classification and grading system. Gut. 2013; 62 (4):489-495; Muir A B, Merves J, Liacouras C A. Role of Endoscopy in Diagnosis and Management of Pediatric Eosinophilic Esophagitis. Gastrointest Endosc Clin N Am. 2016; 26 (1):187-200).
These biopsies meet the diagnostic criteria of Eosinophilic Esophagitis (Lee S, de Boer W B, Naran A, et al. More than just counting eosinophils: proximal oesophageal involvement and subepithelial sclerosis are major diagnostic criteria for eosinophilic oesophagitis. J Clin Pathol. 2010; 63 (7):644-647; Collins M H, Capocelli K, Yang G Y. Eosinophilic Gastrointestinal Disorders Pathology. Front Med (Lausanne). 2018; 4: 261).
Upon confirming the diagnosis with Eosinophilic Esophagitis, JPV was treated with 4 mg of oral Irsogladine maleate twice a day for 8 weeks, without following any other treatment such as food elimination or pharmaceutical treatments (i.e. corticosteroids or monoclonal antibodies).
Due to the therapeutic efficacy shown by Irsogladine administration, it was decided to prolong JPV treatment for an additional 24 weeks (in total 32 weeks), at the same dose, with regular telephone and presential checking of symptoms and general health. […] Esophageal biopsies were taken showing no excess of eosinophil infiltrate (<10 cells/hpf) (FIGS. 12 and 13). There was neither peripheral blood eosinophilia (315 cells mm^3) nor anemia or any biological signs of inflammation.

eosinophilic jejunitis = assay: Example 3: Irsogladine maleate in patient two with mild eosinophilic jejunitis; assay type: in vivo, human
EoE and EoGIDs = settings: cited from earlier work
[3] = patients with EoE or EoGIDs, literature reports
[4] = 2 mg twice a day, listed as Irsogladine Maleate
[5] = 4 mg twice a day, 8 weeks, listed as Irsogladine Maleate

In the case of `Nc1nc(N)nc(-c2cc(Cl)ccc2Cl)n1` [Irsogladine, 6-(2,5-Dichlorophenyl)-1,3,5-triazine-2,4-diamine], the disease remission ([1]; 2 mg twice a day) is reported as “therapeutically effective in inducing disease remission”, the “endoscopic examination of esophageal mucosa (Narrow Band Imaging)” value ([1]; 2 mg twice a day) is reported as “esophageal mucosal furrows, white plaques and trachealization lesions had disappeared” and the “histologic features of esophageal biopsy (eosinophil infiltration, intercellular spaces)” value ([1]; 2 mg twice a day) is reported as “no dilation of intercellular spaces”. The side effects ([1]; 2 mg twice a day) was “No side effects”, the symptoms ([1]; 2 mg twice a day) was “Symptoms had disappeared” and the “eosinophil counts in biopsies of the esophageal mucosa” value ([1]; oral tablets 2 mg twice a day, before treatment more than 30 cells per HPF, EoE threshold 15 counts per HPF) was “less than 5 per HPF”. For the same compound, the “eosinophil counts in esophageal biopsy” value ([2]; 4 mg oral twice a day, 8 weeks, before treatment more than 50 per HPF) was “less than 15 per HPF”, the disease remission ([2]; 4 mg twice a day, 8 weeks) was “therapeutically effective to induce remission” and the “endoscopic aspect of esophageal mucosa” value ([2]; 4 mg twice a day, 8 weeks) was “endoscopically normal”. For the same compound, the “histologic features of esophageal biopsy (eosinophil infiltration, microabscesses, intercellular spaces)” value ([2]; 4 mg twice a day, 8 weeks) was “negligible presence of eosinophil infiltration; also recorded: no eosinophilic microabscesses and absence of intercellular dilated spaces”, the side effects ([2]; 4 mg twice a day, 8 weeks) was “No side effects” and the symptoms ([2]; 4 mg twice a day, 8 weeks) was “completely disappeared”. For the same compound, the “eosinophil infiltrate in esophageal biopsies” value ([2]; 4 mg twice a day, additional 24 weeks (in total 32 weeks)) was under 10 cells/hpf, the “endoscopic aspect of esophageal mucosa” value ([2]; 32 weeks of treatment) was “normal looking mucosa” and the “side effects of long-term administration” value ([2]; 32 weeks of treatment) was “No side effects”.

In the case of `CCN(CCCCOC(=O)c1ccc(OC)c(OC)c1)C(C)Cc1ccc(OC)cc1.Cl` (stereo not drawn) [Mebeverine Chlorhydrate], the “response of symptoms to earlier symptomatic treatment” value (eosinophilic jejunitis; Omeprazole 20 mg twice a day and Mebeverine Chlorhydrate 200 mg twice daily, long periods, before Irsogladine) is reported as “no improvement”.

For `Cn1cnc([N+](=O)[O-])c1Sc1ncnc2nc[nH]c12` [Azathioprine], the side effects (EoE and EoGIDs; [3]) is listed as “not free of side effects” and the efficacy (EoE and EoGIDs; two reports, small number of cases of EoE and EoGE) is listed as “has shown efficacy”.

For Infliximab: Anti-TNFα mAb, the clinical symptoms (EoE and EoGIDs; [3]) is listed as “have not shown efficacy” and the tissue eosinophil infiltrate (EoE and EoGIDs; [3]) is listed as “have not shown efficacy”.

In the case of `Nc1nc(N)nc(-c2cc(Cl)ccc2Cl)n1` [Irsogladine maleate], the “endoscopic examination of esophageal mucosa (Narrow Band Imaging)” value [1, 4] is reported as “Mucosa white plaques and circular trachealization disappeared”, the “histologic features of esophageal biopsy (eosinophil infiltration, intercellular spaces)” value [1, 4] is reported as “Eosinophil infiltration has clearly reduced, and intercellular spaces are back to normal” and the “endoscopic aspect of esophageal mucosa” value [2, 5] is reported as “Esophageal linear furrows, white plaques and a tendency to trachealization have disappeared”. For the same compound, the “histologic features of esophageal biopsy (eosinophil infiltration, microabscesses, intercellular spaces)” value [2, 5] was “absence of eosinophil infiltration”, the “histological aspect of esophageal mucosa” value ([2]; 32 weeks of treatment) was “strictly normal” and the “endoscopic aspect of esophageal mucosa” value ([2]; 32 weeks of treatment, listed as Irsogladine Maleate) was “normal”. The symptoms (eosinophilic jejunitis; 4 mg twice a day, after 2 weeks) was “symptoms improved”, the symptoms (eosinophilic jejunitis; 4 mg twice a day, after 4 weeks) was “fully asymptomatic” and the symptoms (eosinophilic jejunitis; after 6 months maintenance treatment, 4 mg once a day) was “remained asymptomatic”. For the same compound, the gastrointestinal upper endoscopy (eosinophilic jejunitis; after 6 months treatment) was “considered normal; also recorded: normal looking upper jejunal mucosa” and the “histology of upper jejunal mucosa biopsy” value (eosinophilic jejunitis; after six months of daily treatment) was “normal looking villi and no increase of eosinophilic infiltration”.

In the case of “Omalizumab: anti-IgE, targets a highly affinity receptor binding site of human IgE”, the “induction or maintenance of disease remission” value (EoE and EoGIDs; eosinophilic esophagitis, literature reports) is given as “failed to control or induce remission”, the clinical symptoms (EoE and EoGIDs; [3]) is given as “variable effects” and the tissue eosinophil infiltrate (EoE and EoGIDs; [3]) is given as “non-significant decrease”.

In the case of Benralizumab: mAb against IL-5 receptor, the clinical symptoms (EoE and EoGIDs; [3]) is listed as “did not correspond with clinical improvement” and the tissue eosinophil infiltrate (EoE and EoGIDs; [3]) is listed as “significant reduction”.
